Experimental data from patent US7517874B2 (priority 2007, dated 2009).

Experiments:
[1] = biological target: human CB1 receptor (hCB1) (Homo sapiens, UniProt P21554); test: cell-based; format: cell-based; conditions: for +/− HCB1: agonist or inverse agonist at hCB1
Method in brief: (§1)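 Readout: LANCE TR-FRET cAMP, back-calculated from a concurrent standard curve and scaled between forskolin-only and forskolin + 1 μM CP55,940 wells. EC50 and intrinsic activity came from four-parameter fits.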

rat CB2 receptor (rCB2) = biological target: T1, rat CB2 receptor (rCB2) (Rattus norvegicus, UniProt Q9QZN9); test: cell-based; format: cell-based; conditions: agonist or inverse agonist at rCB2
T1 sequence (Q9QZN9 1-360): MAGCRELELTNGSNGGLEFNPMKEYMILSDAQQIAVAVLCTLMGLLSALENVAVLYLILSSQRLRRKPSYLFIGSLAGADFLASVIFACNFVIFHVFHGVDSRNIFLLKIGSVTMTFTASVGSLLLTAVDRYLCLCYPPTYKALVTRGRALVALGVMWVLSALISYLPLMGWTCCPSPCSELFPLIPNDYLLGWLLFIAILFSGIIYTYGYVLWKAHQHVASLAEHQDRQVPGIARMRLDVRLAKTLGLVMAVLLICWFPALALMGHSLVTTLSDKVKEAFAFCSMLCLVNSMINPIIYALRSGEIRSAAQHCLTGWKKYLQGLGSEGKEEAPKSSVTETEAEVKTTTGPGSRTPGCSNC
Method in brief: as §1

Chain of human CB1 receptor (hCB1) (P21554 whole entry): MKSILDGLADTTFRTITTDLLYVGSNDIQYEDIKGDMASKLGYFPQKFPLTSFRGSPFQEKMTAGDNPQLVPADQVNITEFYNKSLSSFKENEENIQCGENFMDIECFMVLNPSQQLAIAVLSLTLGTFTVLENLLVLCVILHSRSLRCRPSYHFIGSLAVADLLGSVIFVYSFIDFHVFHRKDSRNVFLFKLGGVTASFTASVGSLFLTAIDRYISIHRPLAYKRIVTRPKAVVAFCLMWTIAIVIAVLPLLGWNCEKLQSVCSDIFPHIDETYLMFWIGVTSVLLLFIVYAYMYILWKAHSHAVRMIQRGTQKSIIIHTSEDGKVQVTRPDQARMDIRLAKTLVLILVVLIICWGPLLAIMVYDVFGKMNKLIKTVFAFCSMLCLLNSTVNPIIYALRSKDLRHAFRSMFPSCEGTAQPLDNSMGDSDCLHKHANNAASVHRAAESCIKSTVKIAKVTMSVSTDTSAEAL

SMILES | EC50 [1] | +/− RCB2 (rat CB2 receptor (rCB2)) | +/− HCB1 [1]
CNC(=O)[C@@H](NC(=O)c1nc(/C=C/c2ccsc2)n2c1CN(C)CCC2)C(C)(C)C [Compound 446] | > 10 µM | + | 
CNC(=O)[C@@H](NC(=O)c1nc(-c2cnn(C)c2)n2c1CN(C)CCC2)C(C)(C)C [Compound 447, (S)-N-(3,3-dimethyl-1-(methylamino)-1-oxobutan-2-yl)-8-methyl-3-(1-methyl-1H-pyrazol-4-yl)-6,7,8,9-tetrahydro-5H-imidazo[1,5-a][1,4]diazepine-1-carboxamide] |  | + | +
CNC(=O)[C@@H](NC(=O)c1nc(C2=CCC3(CC2)OCCO3)n2c1CN(C)CCC2)C(C)(C)C [Compound 448, (S)-N-(3,3-dimethyl-1-(methylamino)-1-oxobutan-2-yl)-8-methyl-3-(1,4-dioxaspiro[4.5]dec-7-en-8-yl)-6,7,8,9-tetrahydro-5H-imidazo[1,5-a][1,4]diazepine-1-carboxamide] |  | + | +
CNC(=O)[C@@H](NC(=O)c1nc(C2=CCC(C)CC2)n2c1CN(C)CCC2)C(C)(C)C (stereo partly drawn) [Compound 449, N-((S)-3,3-dimethyl-1-(methylamino)-1-oxobutan-2-yl)-8-methyl-3-(4-methylcyclohex-1-enyl)-6,7,8,9-tetrahydro-5H-imidazo[1,5-a][1,4]diazepine-1-carboxamide] |  | + | +
CNC(=O)[C@@H](NC(=O)c1nc(-c2ccncc2F)n2c1CN(C)CCC2)C(C)(C)C [Compound 451, (S)-N-(3,3-dimethyl-1-(methylamino)-1-oxobutan-2-yl)-3-(3-fluoropyridin-4-yl)-8-methyl-6,7,8,9-tetrahydro-5H-imidazo[1,5-a][1,4]diazepine-1-carboxamide] |  | + | +
C=C(c1nc(C(=O)N[C@H](C(=O)NC)C(C)(C)C)c2n1CCCN(C)C2)C(F)(F)F [Compound 453, (S)-N-(3,3-dimethyl-1-(methylamino)-1-oxobutan-2-yl)-8-methyl-3-(3,3,3-trifluoroprop-1-en-2-yl)-6,7,8,9-tetrahydro-5H-imidazo[1,5-a][1,4]diazepine-1-carboxamide] | > 10 µM | + | 
CNC(=O)[C@@H](NC(=O)c1nc(C(C)=C(C)C)n2c1CN(C)CCC2)C(C)(C)C [Compound 454, (S)-N-(3,3-dimethyl-1-(methylamino)-1-oxobutan-2-yl)-8-methyl-3-(3-methylbut-2-en-2-yl)-6,7,8,9-tetrahydro-5H-imidazo[1,5-a][1,4]diazepine-1-carboxamide] |  | − | +
C=C(c1ccccc1)c1nc(C(=O)N[C@H](C(=O)NC)C(C)(C)C)c2n1CCCN(C)C2 [Compound 455, (S)-N-(3,3-dimethyl-1-(methylamino)-1-oxobutan-2-yl)-8-methyl-3-(1-phenylvinyl)-6,7,8,9-tetrahydro-5H-imidazo[1,5-a][1,4]diazepine-1-carboxamide] | > 10 µM | + | 
CNC(=O)[C@@H](NC(=O)c1nc(C2=CCCC2)n2c1CN(C)CCC2)C(C)(C)C [Compound 456] | > 10 µM | + | 
CNC(=O)[C@@H](NC(=O)c1nc(C2=CCCCCC2)n2c1CN(C)CCC2)C(C)(C)C [Compound 457, (S,E)-3-cycloheptenyl-N-(3,3-dimethyl-1-(methylamino)-1-oxobutan-2-yl)-8-methyl-6,7,8,9-tetrahydro-5H-imidazo[1,5-a][1,4]diazepine-1-carboxamide] | > 10 µM | − | 
CNC(=O)[C@@H](NC(=O)c1nc(/C=C/Cc2ccccc2)n2c1CN(C)CCC2)C(C)(C)C [Compound 458, (S,E)-N-(3,3-dimethyl-1-(methylamino)-1-oxobutan-2-yl)-8-methyl-3-(3-phenylprop-1-enyl)-6,7,8,9-tetrahydro-5H-imidazo[1,5-a][1,4]diazepine-1-carboxamide] |  | − | +
